Converted amounts (≈) assume the structure as drawn. “And” between values parts separate entries of the source, which are not always exact repeats. Identical values can stand only once.
Tested on: not listed separately
Test: Sulforhodamine B growth inhibition assay, PLP2 (hepatotoxicity)
Conditions: pig, PLP2 cells (porcine liver primary cells, non-tumor)
Procedure: (§1) J. regia leaf extracts (30 mg/mL) and solvents were studied regarding their inhibitory growth activity of the HeLa (cervical carcinoma) cell line and the non-tumor PLP2 cells (porcine liver primary cells) by using a sulforhodamine B assay. The extracts were diluted to obtain a stock solution of 10 mg/mL, and the concentration of the working solutions ranged from 500 to 7.8 µg/mL, while the concentration of the solvents ranged from 4% to 0.0156%. Ellipticine was used as positive control. The experimental protocol related to the cell cultures was previously described by Barros et al. and Abreu et al..

| SMILES | GI50 |
| --- | --- |
| Cc1c2ccncc2c(C)c2c1[nH]c1ccccc12 [Ellipticine, reference compound] | 2.3 µg/mL (≈ 9.34 µM) |

Tested on: non-tumor PLP2 cells (porcine liver primary cells)
Test: as above
Conditions: not given
Procedure: as §1

| SMILES | GI50 PLP2, Solvent |
| --- | --- |
| CCO [Ethanol, ethanol] | >4 %, v/v |
| O [Water, water] | >4 %, v/v |
| OCCO [1,2-ethanediol] | >4 %, v/v |

Same assay, conditions: pig

| SMILES | GI50 PLP2, Solvent |
| --- | --- |
| OCCCCCO [1,5-pentanediol] | 0.59 ± 0.02b %, v/v |
| OCC(O)CO [Glycerol, glycerol] | >4 %, v/v |

Same assay, conditions: solvent without extract; range 4% to 0.0156%; mean ± SD

| SMILES | GI50 PLP2, Solvent |
| --- | --- |
| OCCCO [1,3-propanediol] | >4 %, v/v |
| CC(O)CO (stereo not shown) [1,2-propanediol] | >4 %, v/v |
| CCCC(O)CO (stereo not shown) [1,2-pentanediol] | 0.89 ± 0.04a %, v/v |
| CC(O)CCO (stereo not shown) [1,3-butanediol] | >4 %, v/v |
| CCCCC(O)CO (stereo not shown) [1,2-hexanediol] | 0.285 ± 0.005 %, v/v and 0.285 ± 0.005c %, v/v |

Tested on: HeLa (cervical carcinoma) cell line
Test: Sulforhodamine B growth inhibition assay, HeLa
Format: cell-based, human
Conditions: not given
Procedure: as §1

| SMILES | GI50 HeLa, Solvent |
| --- | --- |
| OCCO [1,2-ethanediol] | >4 %, v/v |

Same assay, conditions: Homo sapiens, HeLa, positive control; mean ± SD

| SMILES | GI50 |
| --- | --- |
| Cc1c2ccncc2c(C)c2c1[nH]c1ccccc12 [Ellipticine, reference compound] | 1 ± 0.1 µg/mL (≈ 4.06 µM) |

Same assay, conditions: solvent without extract; range 4% to 0.0156%; mean ± SD

| SMILES | GI50 HeLa, Solvent |
| --- | --- |
| OCCCO [1,3-propanediol] | >4 %, v/v |
| CC(O)CO (stereo not shown) [1,2-propanediol] | >4 %, v/v |
| CCCC(O)CO (stereo not shown) [1,2-pentanediol] | 0.63 ± 0.04a %, v/v |
| OCCCCCO [1,5-pentanediol] | 0.49 ± 0.02b %, v/v |
| CCO [Ethanol, ethanol] | >4 %, v/v |
| O [Water, water] | >4 %, v/v |
| CC(O)CCO (stereo not shown) [1,3-butanediol] | >4 %, v/v |
| OCC(O)CO [Glycerol, glycerol] | >4 %, v/v |
| CCCCC(O)CO (stereo not shown) [1,2-hexanediol] | 0.36 ± 0.02 %, v/v and 0.36 ± 0.02c %, v/v |
